According to patent US4610868A, “Lipid matrix carriers for use in drug delivery systems” (The Liposome Company, Inc., priority 1984, dated 1986):
Like-named read-outs stand apart in the source and are kept apart here.

How the values were obtained:
[1] = Entrapment of indomethacin or diazepam in LMCs (radiolabeled tracer); format: physicochemical
Procedure: Ten mg of indomethacin (Sigma Chemical Co., St. Louis, Missouri) plus 10 μl of the ^14 C-labeled drug as a tracer (New England Nuclear, Boston, Massachusetts, 22 mCi/m mole) were dissolved in 1.5 ml of chloroform. This solution was then combined with 4 ml of corn oil and 150 mg of EPC, and the mixture was slowly extruded through a 21 gauge syringe needle into 20 ml of PBS at 45° C., with stirring. After combining all constituents, the mixture was roto-evaporated at 45° C. to remove the chloroform. One ml of the resulting suspension was then combined with an equal volume of Ficoll-Paque, the mixture was centrifuged at 10,000×g for 10 minutes, and the LMCs, which floated to the top of the gradient, were isolated.
By following the procedure described in Section 6.2.1., supra, 5 mg of diazepam (Abbott Laboratories, N. Chicago, Illinois) with a trace of the ^3 H-labeled drug added (New England Nuclear, Boston, Massachusetts, 76.7 Ci/m mole) were incorporated into LMCs.

[2] = Entrapment of ^14C-sucrose/streptomycin in LMCs (liquid scintillation counting); format: physicochemical; settings: with streptomycin, corn oil/EPC, water-in-oil emulsion
Procedure: Streptomycin (Sigma Chemical Co., St. Louis, Missouri) and ^14 C-sucrose (New England Nuclear, Boston, Massachusetts, 31.3 μCi/m mole) were used together as model water soluble compounds for entrapment in conjunction with corn oil and EPC. The ratio of corn oil to EPC used to prepare the emulsion was […] (weight/weight basis). The water-in-oil emulsion was prepared as follows: 6 ml of corn oil, 40 mg of EPC and 0.3 ml of phosphate buffered saline (PBS) containing 10 μl of ^14 C-sucrose and 100 mg of streptomycin were sonicated together for 45 seconds, using a Branson Model E sonicator at 22° C. The resulting water-in-oil emulsion was then extruded slowly through a 21 gauge syringe needle into 40 ml of the saturated acetone solution, with rapid stirring.
A cloudy suspension of LMCs resulted that was centrifuged at 10,000×gfor 10 minutes at 4° C. The clear supernatant fluid was removed, and the pellet was washed three times with cold saturated acetone, dried under a nitrogen stream, and resuspended in 10 ml of PBS. The hydrated LMCs were then diluted with an equal volume of Ficoll-Paque (Pharmacia Fine Chemicals, Piscataway, New Jersey) and centrifuged at 10,000×g for 10 minutes. […]
In FIG. 4, the data are based upon the stability of streptomycin-LMCs in serum. […] At the times indicated, the absorbances of the samples at 400 and 600 nm were determined, and the 400/600 ratios were computed.

[3] = set-up: species or system Hartley guinea pigs; settings: guinea pig, in vivo, ip
Procedure: To investigate the drug release characteristics of LMCs in vivo, gentamicin-LMC preparations were injected intraperitoneally (IP) into experimental animals. The final distribution of the drug was then compared with that of similarly injected free gentamicin.
LMCs were prepared as described in Section 6.1.2., using 6 ml of corn oil, 0.3 ml of PBS, 40 mg of EPC, 100 mg of gentamicin (with a small amount of I-gentamicin added as a tracer) and 40 ml of acetone. The resulting product contained 0.5 mg of gentamicin per mg of dry weight LMCs, as determined by gamma counting.
Two groups of 850 g female adult Hartley guinea pigs (Hilltop Farms, Scottsdale, Pennsylvania) were treated as follows: Animals in one group each received 0.3 ml of 100 μg/ml gentamicin in saline (with a small amount of ^125 I-gentamicin added as a tracer), IP. IP injection leads to rapid systemic distribution of the injected material. Animals in the other group received the same quantity of gentamicin entrapped in LMCs. At various times after injection pairs of animals were sacrificed, the hearts, spleens, kidneys and livers were removed, and the quantity of gentamicin in each organ was determined by counting in a crystal gamma counter.

[4] = Fluorescence/retention of oxytetracycline in skin after topical administration; format: in vivo, Swiss Webster mice; settings: 0.2 ml of 100 mg/ml
Procedure: (§1) In the following experiment, two groups of adult male Swiss Webster mice were treated with oxytetracycline as follows: 5 mice per group were depilitated on the back of their necks and 0.2 ml of 100 mg/ml oxytetracycline was topically applied to the depilitated area. The control group received oxytetracycline in PBS whereas the second group received oxytetracycline encapsulated in LMCs prepared as described in Section 6.1.3.
On a daily basis the treated area of each mouse was illuminated with ultraviolet light and inspected for fluorescence. Since oxytetracycline is fluorescent, the fluorescence of the treated skin is an indication of the presence of the drug in the skin. Fluorescence could be detected for only 2 days in the control group treated with the aqueous solution of oxytetracycline. […] In contrast, fluorescence could be detected up to 4 days in the group that was treated with oxytetracycline-LMCs.

[5] = Systemic release (urine) of oxytetracycline after topical administration; format: in vivo, Swiss Webster mice; settings: 0.2 ml of 100 mg/ml, 1, 18, 44 and 72 hours
Procedure: as §1
Clean catch urine samples were taken at 1, 18, 44, and 72 hours after topical application and aliquots were analyzed for the presence of oxytetracycline using the bioassay previously described in Sections 6.1.2, 7.1, and 7.2.

[6] = format: in vivo, Swiss Webster mice; settings: 80 mg/kg IM
Procedure: LMCs containing oxytetracycline--HCl (Sigma Chemical Co., St. Louis, Missouri) were prepared as described in Section 6.1.3. supra. The LMCs thus produced contained 20 mg of oxytetracycline per ml of hydrated LMCs, as determined by the bioassay described in Section 6.1.3. Ten 25 g female adult Swiss Webster mice were then injected IM with 80 mg/kg of oxytetracycline in one hind leg, using either LMC-oxytetracycline or the free drug. In both cases, the antibiotic was administered in 0.1 ml of physiological saline.
At the times indicated in FIG. 3, samples of clean-catch urine were taken and aliquots were plated onto lawns of S. aureus (ATCC 11632) as described in Section 7.1. Antibiotic levels were quantified by comparison to an oxytetracycline standard curve. […] By 174 hours following injection, urinary levels of oxytetracycline were undetectable.

Molecule: COc1ccc2c(c1)c(CC(=O)O)c(C)n2C(=O)c1ccc(Cl)cc1 [indomethacin]
- degree of entrapment [1]: 84%
- degree of entrapment (starting amount incorporated into the LMCs) ([1]; corn oil/EPC, chloroform): 84%

Molecule: OC[C@H]1O[C@@](CO)(O[C@H]2O[C@H](CO)[C@@H](O)[C@H](O)[C@H]2O)[C@@H](O)[C@@H]1O [^14 C-sucrose, sucrose]
- initial amount of ^14 C-sucrose entrapped in the LMCs [2]: 96.5%

Molecule: CN1C(=O)CN=C(c2ccccc2)c2cc(Cl)ccc21 [diazepam]
- degree of entrapment [1]: 93%

Molecule: gentamicin
- Recovery of Gentamicin, Heart ([3]; 15 min): 0.17 % of Total Administered
- Recovery of Gentamicin, Kidney ([3]; 15 min): 2.53 % of Total Administered
- Recovery of Gentamicin, Liver ([3]; 15 min): 2.60 % of Total Administered
- Recovery of Gentamicin, Spleen ([3]; 15 min): 0.09 % of Total Administered
- Recovery of Gentamicin, Heart ([3]; 30 min): 1.23 % of Total Administered
- Recovery of Gentamicin, Kidney ([3]; 30 min): 4.32 % of Total Administered
- Recovery of Gentamicin, Liver ([3]; 30 min): 3.14 % of Total Administered
- Recovery of Gentamicin, Spleen ([3]; 30 min): 0.08 % of Total Administered
- Recovery of Gentamicin, Heart ([3]; 60 min): 0.15 % of Total Administered
- Recovery of Gentamicin, Kidney ([3]; 60 min): 7.04 % of Total Administered
- Recovery of Gentamicin, Liver ([3]; 60 min): 2.28 % of Total Administered
- Recovery of Gentamicin, Spleen ([3]; 60 min): 0.05 % of Total Administered
- Recovery of Gentamicin, Heart ([3]; 120 min): 0.13 % of Total Administered
- Recovery of Gentamicin, Kidney ([3]; 120 min): 7.27 % of Total Administered
- Recovery of Gentamicin, Liver ([3]; 120 min): 2.00 % of Total Administered
- Recovery of Gentamicin, Spleen ([3]; 120 min): 0.04 % of Total Administered

Molecule: CN(C)C1C(=O)C(C(N)=O)=C(O)C2(O)C(=O)C3=C(O)c4c(O)cccc4C(C)(O)C3C(O)C12 (stereo not drawn) [oxytetracycline]
- duration of detectable skin fluorescence [4]: 2 days
- removal from skin by washing [4]: could easily be washed off
- oxytetracycline in urine [5]: No detectable levels
- time within which urinary levels diminished to zero [6]: ≤ 30 h
